Reference: the NIST ThermoML archive (doi:10.1016/j.jct.2019.04.010)
Numbers after ± are expanded uncertainties.

Experiment: xn = mol fraction of the nth substance listed
Settings: 100 kPa, Liquid; for viscosity: Concentric cylinders viscometry; for mass density: Vibrating tube method

CCCCn1cc[n+](C)c1.O=[N+]([O-])[O-] [1-butyl-3-methylimidazolium nitrate] + CCCC(C)O
Settings | mass density [kg/m3] | viscosity [mPa·s]
293.15 K, x1 = 0.0812 | 854 ± 1.5 | 4.47 ± 0.89
293.15 K, x1 = 0.1604 | 893.6 ± 1.4 | 5.28 ± 1.1
293.15 K, x1 = 0.2403 | 929.8 ± 1.3 | 6.43 ± 1.3
293.15 K, x1 = 0.3499 | 974.3 ± 1.3 | 9.03 ± 1.8
293.15 K, x1 = 0.4399 | 1007.1 ± 1.3 | 12.56 ± 2.5
293.15 K, x1 = 0.5604 | 1046.7 ± 1.3 | 20.29 ± 4.1
293.15 K, x1 = 0.6505 | 1073.3 ± 1.3 | 30.81 ± 6.2
293.15 K, x1 = 0.7405 | 1097.8 ± 1.3 | 47.6 ± 9.5
293.15 K, x1 = 0.8501 | 1124.9 ± 1.4 | 83.3 ± 17
293.15 K, x1 = 0.9396 | 1145.3 ± 1.5 | 143.6 ± 29
293.15 K, x1 = 1 | 1158.3 ± 1.5 | 223.54 ± 45
298.15 K, x1 = 0.0812 | 850.4 ± 1.5 | 3.69 ± 0.74
298.15 K, x1 = 0.1604 | 890.1 ± 1.4 | 4.35 ± 0.87
298.15 K, x1 = 0.2403 | 926.4 ± 1.3 | 5.39 ± 1.1
298.15 K, x1 = 0.3499 | 971.1 ± 1.3 | 7.59 ± 1.5
298.15 K, x1 = 0.4399 | 1004 ± 1.3 | 10.53 ± 2.1
298.15 K, x1 = 0.5604 | 1043.5 ± 1.3 | 17.14 ± 3.4
298.15 K, x1 = 0.6505 | 1070.3 ± 1.3 | 25.47 ± 5.1
298.15 K, x1 = 0.7405 | 1094.8 ± 1.3 | 37.96 ± 7.6
298.15 K, x1 = 0.8501 | 1122 ± 1.4 | 63.4 ± 13
298.15 K, x1 = 0.9396 | 1142.3 ± 1.5 | 105.6 ± 21
298.15 K, x1 = 1 | 1155.2 ± 1.5 | 168.97 ± 34
303.15 K, x1 = 0.0812 | 846.5 ± 1.5 | 3.16 ± 0.63
303.15 K, x1 = 0.1604 | 886.5 ± 1.4 | 3.72 ± 0.74
303.15 K, x1 = 0.2403 | 922.9 ± 1.3 | 4.65 ± 0.93
303.15 K, x1 = 0.3499 | 967.8 ± 1.3 | 6.64 ± 1.3
303.15 K, x1 = 0.4399 | 1000.7 ± 1.3 | 9.14 ± 1.8
303.15 K, x1 = 0.5604 | 1040.5 ± 1.3 | 14.61 ± 2.9
303.15 K, x1 = 0.6505 | 1067.4 ± 1.3 | 21.35 ± 4.3
303.15 K, x1 = 0.7405 | 1092.1 ± 1.3 | 31.14 ± 6.2
303.15 K, x1 = 0.8501 | 1119.3 ± 1.4 | 50.3 ± 10
303.15 K, x1 = 0.9396 | 1139.5 ± 1.5 | 81.8 ± 16
303.15 K, x1 = 1 | 1152.3 ± 1.5 | 125.36 ± 25
308.15 K, x1 = 0.0812 | 842.8 ± 1.5 | 2.74 ± 0.55
308.15 K, x1 = 0.1604 | 882.7 ± 1.4 | 3.25 ± 0.65
308.15 K, x1 = 0.2403 | 919.4 ± 1.4 | 4.08 ± 0.82
308.15 K, x1 = 0.3499 | 964.4 ± 1.3 | 5.73 ± 1.1
308.15 K, x1 = 0.4399 | 997.5 ± 1.3 | 7.89 ± 1.6
308.15 K, x1 = 0.5604 | 1037.4 ± 1.3 | 12.37 ± 2.5
308.15 K, x1 = 0.6505 | 1064.4 ± 1.3 | 17.74 ± 3.6
308.15 K, x1 = 0.7405 | 1089.1 ± 1.3 | 25.35 ± 5.1
308.15 K, x1 = 0.8501 | 1116.3 ± 1.4 | 40 ± 8
308.15 K, x1 = 0.9396 | 1136.5 ± 1.5 | 63.4 ± 13
308.15 K, x1 = 1 | 1149.3 ± 1.5 | 96.74 ± 19
313.15 K, x1 = 0.0812 | 838.8 ± 1.5 | 2.3 ± 0.46
313.15 K, x1 = 0.1604 | 879.2 ± 1.4 | 2.8 ± 0.56
313.15 K, x1 = 0.2403 | 916 ± 1.4 | 3.55 ± 0.71
313.15 K, x1 = 0.3499 | 961.2 ± 1.3 | 5.05 ± 1
313.15 K, x1 = 0.4399 | 994.4 ± 1.3 | 6.97 ± 1.4
313.15 K, x1 = 0.5604 | 1034.4 ± 1.3 | 10.51 ± 2.1
313.15 K, x1 = 0.6505 | 1061.4 ± 1.3 | 14.75 ± 3
313.15 K, x1 = 0.7405 | 1086.1 ± 1.3 | 20.64 ± 4.1
313.15 K, x1 = 0.8501 | 1113.4 ± 1.4 | 31.9 ± 6.4
313.15 K, x1 = 0.9396 | 1133.8 ± 1.5 | 50 ± 10
313.15 K, x1 = 1 | 1146.5 ± 1.5 | 75.12 ± 15
318.15 K, x1 = 0.0812 | 834.7 ± 1.5 | 1.95 ± 0.39
318.15 K, x1 = 0.1604 | 875.2 ± 1.4 | 2.4 ± 0.48
318.15 K, x1 = 0.2403 | 912.1 ± 1.4 | 3.05 ± 0.61
318.15 K, x1 = 0.3499 | 957.5 ± 1.3 | 4.37 ± 0.88
318.15 K, x1 = 0.4399 | 990.9 ± 1.3 | 5.91 ± 1.2
318.15 K, x1 = 0.5604 | 1031.1 ± 1.3 | 8.91 ± 1.8
318.15 K, x1 = 0.6505 | 1058.3 ± 1.3 | 12.21 ± 2.4
318.15 K, x1 = 0.7405 | 1083.2 ± 1.3 | 17.09 ± 3.4
318.15 K, x1 = 0.8501 | 1110.7 ± 1.4 | 26.5 ± 5.3
318.15 K, x1 = 0.9396 | 1131 ± 1.5 | 40 ± 8
318.15 K, x1 = 1 | 1143.8 ± 1.4 | 56.28 ± 11
323.15 K, x1 = 0.0812 | 830.7 ± 1.5 | 1.66 ± 0.33
323.15 K, x1 = 0.1604 | 871.4 ± 1.4 | 1.99 ± 0.4
323.15 K, x1 = 0.2403 | 908.7 ± 1.4 | 2.49 ± 0.5
323.15 K, x1 = 0.3499 | 954.3 ± 1.3 | 3.56 ± 0.71
323.15 K, x1 = 0.4399 | 987.9 ± 1.3 | 4.81 ± 0.96
323.15 K, x1 = 0.5604 | 1028.2 ± 1.3 | 7.13 ± 1.4
323.15 K, x1 = 0.6505 | 1055.5 ± 1.3 | 9.68 ± 1.9
323.15 K, x1 = 0.7405 | 1080.5 ± 1.3 | 13.67 ± 2.7
323.15 K, x1 = 0.8501 | 1108.1 ± 1.4 | 21.47 ± 4.3
323.15 K, x1 = 0.9396 | 1128.4 ± 1.5 | 32.3 ± 6.5
323.15 K, x1 = 1 | 1141.2 ± 1.4 | 45.17 ± 9.1
